Molecules are shown by their SMILES.

The subject of data set [1] is hairless mice (UV-induced skin thickening). Description: Eight dose UV exposure, bi-folded epidermal thickness in hairless wild type and β2-AR knockout mice. It counts as in vivo, mouse. Conditions: 5 μM in 200 μL acetone topically every other day, 200 mJ/cm^2 UV, eight irradiations. As for the experimental part: The Western University of Health Sciences’ Institutional Animal Care and Use Committee (WesternU IACUC) approved all animal studies prior to initiating any experiments. The animal studies were carried out under WesternU IACUC recommendations and guidelines, which follow NIH guidelines. Mice had access to water and food ad libitum and housed on a 12-hour light/dark cycle with 35% humidity. Homozygous β1-AR and β2-AR null mice (Adrb1^tm1Bkk Adrb2^tm1Bkk/J Stock Number 003810) were purchased from Jackson Laboratory (Bar Harbor, ME); the double knockout mice were characterized previously. The double knockout mice were bred with C57BL/6J from Jackson Lab to generate a heterozygous F1 generation. The F1 generation was bred together to generate the F2 generation of which 1/16th of the offspring were a β2-AR knockout mouse. SKH-1 mice purchased from Charles River (Wilmington, MA) were bred with the β2-AR knockout mice generating a second heterozygous F1 generation. The F1 generation was bred together to generate the F2 generation of which 1/16th of the offspring were a hairless β2-AR knockout mouse. The F2 generation was backcrossed with a new batch of SKH-1 from Charles River to generate mice more efficiently. The mice used in this study are 75% SKH-1 and 25% mixed background. Following experimentation, and to cull the unused mice in a colony, mice were euthanized via exposure to 32% Isoflurane followed by cervical dislocation to ensure euthanization prior to disposal.
The first two weeks were pretreatment and the second two weeks were during the UV irradiation procedure, but drugs were applied the day after UV exposure to avoid sunscreen effects. All groups involved with UV were irradiated with 200 mJ/cm^2 dose of UV every other day for a total of eight irradiations. Bi-folded epidermal thickness was measured using a digital caliper before drug treatment on non-radiation days. Three skin thickness measurements were taken along the left, middle, and right dorsal epidermal layer, and the mean thickness was recorded for each mouse.

For data set [2] the following is noted: carvedilol cohort versus non-carvedilol cohort; cited from earlier work.
Data set [3] has as its system JB6 P+ cells. Kind of data set: Anchorage-independent growth assay in soft agar (EGF-induced JB6 P+ colony formation). It counts as cell-based, mouse. As for the experimental part:
Ten ng/mL EGF was used to promote the anchorage-independent growth of JB6 cells. […] Plates were incubated at 37°C, 5% CO2 for 14 days. Colonies with greater than ten cells were counted manually under a microscope. […] Normalization allowed for comparison of data over a range of JB6 P+ cell cultures, passages, and experimental time for the shRNA studies, as well as control for variation in the EGF response, and importantly allowed for a direct comparison to all concentration-response experiments including the toxicity assays. […] All group sizes were determined via previous studies to provide statistically meaningful data. In the soft agar assays, key results were repeated with different JB6 P+ cells to confirm the results. Similarly, the shRNA studies were conducted with three independent concentration-response curves with different JB6 P+ cell stocks. […] For two sample comparisons a t-test was utilized, and when comparing multiple samples a One-, Two-, or Three-Factor ANOVA followed by Tukey-Kramer post hoc test was utilized depending on the data. For all tests, statistical difference was donated when p < 0.05. […] The I[…]*PSD is expressed in x-axis units (log [M]) as is an IC50 and it represents the first concentration where it is expected to observe a statistical decrease in the measured signal. […] Using the formula provided by GraphPad Prism or a straight line for the point-to-point graphs, the X-axis value for point Y was determined. The error is ascribed to this measurement via adding and subtracting the pooled standard deviation (PSD) to/from point Y generating point Y ± PSD. The two new points were then transformed to the X-axis units as was done for point Y creating an asymmetric error in sigmoidal plots. When the error was asymmetric, the larger error value was chosen to err on the conservative side. See S1 Fig for a pictoral explination of the method. The data is presented as I[…]*PSD ± error.

The subject of data set [4] is JB6 P+ cells. Description: MTS cell proliferation assay. It counts as cell-based, mouse. Conditions: two weeks. As for the experimental part: Cell viability was determined by the addition of MTS reagent according to the manufacturer’s protocol (Promega, Madison, WI) and absorbance was measured using a Bio-Tek μQuant plate reader with KCJunior software. […] Normalization allowed for comparison of data over a range of JB6 P+ cell cultures, passages, and experimental time for the shRNA studies, as well as control for variation in the EGF response, and importantly allowed for a direct comparison to all concentration-response experiments including the toxicity assays. Data are expressed as mean ± SD and were analyzed using GraphPad Prism version 7.02 (La Jolla, CA). All group sizes were determined via previous studies to provide statistically meaningful data. In the soft agar assays, key results were repeated with different JB6 P+ cells to confirm the results. Similarly, the shRNA studies were conducted with three independent concentration-response curves with different JB6 P+ cell stocks. Statistical analysis of raw data was conducted with NCSS 2007 (Kaysville, UT). For two sample comparisons a t-test was utilized, and when comparing multiple samples a One-, Two-, or Three-Factor ANOVA followed by Tukey-Kramer post hoc test was utilized depending on the data. For all tests, statistical difference was donated when p < 0.05.
On the technique in general: Formazan colour is commonly taken as a measure of viable cells.

One may read the IC50 as the midpoint of a concentration-inhibition curve. `COc1ccccc1OCCNCC(O)COc1cccc2[nH]c3ccccc3c12` (centres unmarked) [Carvedilol]: the entries for the “effect on UV-induced skin thickening, words” value in data set [1] (wild type mice) and in data set [1] (β2-AR knockout mice) were “statistical difference from the UV control on day 8 onward” and “greater effects in the knockout mice”, respectively. Further, in data set [2], the “reduction in the incidence of all types of cancer” value is on record as 26%. Moreover, in the data set on JB6 P+ cells [3] (10 ng/mL EGF, 14 days, negative log value), the “Soft Agar Assay Log IC50” value is -6.61 ± 0.06 log [M]. Moreover, in the data set with JB6 P+ cells [3] (Mus musculus, 336 h, 10 ng/mL EGF, 14 days, negative log value, read-out: Soft Agar Assay Log IC50 (converted)), the half-maximal inhibitory concentration (IC50) is 251 nM. Further, the Emax in the data set on JB6 P+ cells [3] (Mus musculus, efficacy of inhibition of colony formation, reported if non-toxic) is 94.7 ± 4.31%. The “toxicity (cell viability), words” value in the data set with JB6 P+ cells [4] (100 μM) is “maximum toxicity”; in the data set on JB6 P+ cells [4] (concentrations lower than 10 μM) it was “did not affect cell viability”.

Values taken from article PMC6527222 (PLoS ONE, 2019).
